The source made the active and inactive calls. The calls are words filed in the database; no cut-off is given here.
Tests used:
[1] = tested on: Escherichia coli; assay: Antibiotic adjuvant activity against multi-drug resistant Escherichia coli clinical isolate 94393 assessed as inhibition of bacterial growth incubated for 18 hrs in presence of Rifampicin by two fold broth microdilution checkerboard assay; assay type: functional
[2] = tested on: Pseudomonas aeruginosa; assay: Antibacterial activity against multi-drug resistant Pseudomonas aeruginosa clinical isolate PA101243 assessed as inhibition of bacterial growth incubated for 18 hrs by two fold broth microdilution assay; assay type: functional
[3] = tested on: Pseudomonas aeruginosa; assay: Antibiotic adjuvant activity against Pseudomonas aeruginosa PAO1 assessed as fold potentiation incubated for 18 hrs in presence of minocycline by two fold broth microdilution checkerboard assay; assay type: functional
[4] = tested on: Escherichia coli; assay: Antibiotic adjuvant activity against multi-drug resistant Escherichia coli clinical isolate 94393 assessed as rifampicin MIC incubated for 18 hrs in presence of Rifampicin by two fold broth microdilution checkerboard assay; assay type: functional
[5] = tested on: Pseudomonas aeruginosa; assay: Antibiotic adjuvant activity against multi-drug resistant Pseudomonas aeruginosa clinical isolate PA101243 assessed as doxycycline MIC incubated for 18 hrs in presence of doxycycline by two fold broth microdilution checkerboard assay; assay type: functional
[6] = tested on: Pseudomonas aeruginosa; assay: Antibiotic adjuvant activity against multi-drug resistant Pseudomonas aeruginosa clinical isolate PA264 assessed as fractional inhibitory concentration index incubated for 18 hrs in presence of doxycycline by two fold broth microdilution checkerboard assay; assay type: functional
[7] = tested on: Enterococcus faecium; assay: Antibiotic adjuvant activity against Enterococcus faecium 114278 assessed as rifampicin MIC incubated for 18 hrs in presence of rifampicin by two fold broth microdilution checkerboard assay; assay type: functional
[8] = tested on: Acinetobacter baumannii; assay: Antibiotic adjuvant activity against Acinetobacter baumannii ATCC 17978 at 8 to 11 ug/ml incubated for 18 hrs in presence of rifampicin and 10 % FBS media by two fold broth microdilution checkerboard assay; assay type: functional, organism-based; conditions: dose 8-11 µg/ml
[9] = tested on: Acinetobacter baumannii; assay: Antibiotic adjuvant activity against multi-drug resistant Acinetobacter baumannii clinical isolate AB027 assessed as fractional inhibitory concentration index incubated for 18 hrs in presence of Rifampicin by two fold broth microdilution checkerboard assay; assay type: functional
[10] = tested on: Acinetobacter baumannii; assay: Antibiotic adjuvant activity against Acinetobacter baumannii ATCC 17978 assessed as fold potentiation incubated for 18 hrs in presence of Rifampicin by two fold broth microdilution checkerboard assay; assay type: functional
[11] = tested on: Acinetobacter baumannii; assay: Antibiotic adjuvant activity against Acinetobacter baumannii ATCC 17978 assessed as fold potentiation incubated for 18 hrs in presence of vancomycin by two fold broth microdilution checkerboard assay; assay type: functional
[12] = tested on: Escherichia coli; assay: Antibiotic adjuvant activity against multi-drug resistant Escherichia coli clinical isolate EC107115 assessed as minocycline MIC incubated for 18 hrs in presence of minocycline by two fold broth microdilution checkerboard assay; assay type: functional
[13] = tested on: Pseudomonas aeruginosa; assay: Antibiotic adjuvant activity against multi-drug resistant Pseudomonas aeruginosa clinical isolate 114228 assessed as fold potentiation incubated for 18 hrs in presence of Rifampicin by two fold broth microdilution checkerboard assay; assay type: functional
[14] = tested on: Pseudomonas aeruginosa; assay: Antibiotic adjuvant activity against multi-drug resistant Pseudomonas aeruginosa clinical isolate PA264 assessed as inhibition of bacterial growth incubated for 18 hrs in presence of minocycline by two fold broth microdilution checkerboard assay; assay type: functional
[15] = tested on: Pseudomonas aeruginosa; assay: Antibiotic adjuvant activity against multi-drug resistant Pseudomonas aeruginosa clinical isolate PA259 assessed as doxycycline MIC incubated for 18 hrs in presence of doxycycline by two fold broth microdilution checkerboard assay; assay type: functional
[16] = tested on: Pseudomonas aeruginosa; assay: Antibiotic adjuvant activity against multi-drug resistant Pseudomonas aeruginosa clinical isolate PA264 assessed as fractional inhibitory concentration index incubated for 18 hrs in presence of Rifampicin by two fold broth microdilution checkerboard assay; assay type: functional
[17] = tested on: Pseudomonas aeruginosa; assay: Antibiotic adjuvant activity against multi-drug resistant Pseudomonas aeruginosa clinical isolate PA262 assessed as inhibition of bacterial growth incubated for 18 hrs in presence of minocycline by two fold broth microdilution checkerboard assay; assay type: functional
[18] = tested on: Pseudomonas aeruginosa; assay: Antibiotic adjuvant activity against multi-drug resistant Pseudomonas aeruginosa clinical isolate 101243 assessed as fractional inhibitory concentration index incubated for 18 hrs in presence of Rifampicin by two fold broth microdilution checkerboard assay; assay type: functional
[19] = tested on: Pseudomonas aeruginosa; assay: Antibiotic adjuvant activity against multi-drug resistant Pseudomonas aeruginosa clinical isolate PA101243 assessed as fractional inhibitory concentration index incubated for 18 hrs in presence of doxycycline by two fold broth microdilution checkerboard assay; assay type: functional
[20] = tested on: Escherichia coli; assay: Antibiotic adjuvant activity against multi-drug resistant Escherichia coli clinical isolate EC107115 assessed as doxycycline MIC incubated for 18 hrs in presence of doxycycline by two fold broth microdilution checkerboard assay; assay type: functional
[21] = tested on: Escherichia coli; assay: Antibiotic adjuvant activity against Escherichia coli ATCC 25922 at 8 to 11 ug/ml incubated for 18 hrs in presence of rifampicin and 25 % FBS media by two fold broth microdilution checkerboard assay; assay type: functional, organism-based; conditions: dose 8-11 µg/ml
[22] = tested on: Escherichia coli; assay: Antibiotic adjuvant activity against multi-drug resistant Escherichia coli clinical isolate 107115 assessed as inhibition of bacterial growth incubated for 18 hrs in presence of Rifampicin by two fold broth microdilution checkerboard assay; assay type: functional
[23] = tested on: Pseudomonas aeruginosa; assay: Antibiotic adjuvant activity against multi-drug resistant Pseudomonas aeruginosa clinical isolate PA262 assessed as minocycline MIC incubated for 18 hrs in presence of minocycline by two fold broth microdilution checkerboard assay; assay type: functional
[24] = tested on: Acinetobacter baumannii; assay: Antibiotic adjuvant activity against multi-drug resistant Acinetobacter baumannii clinical isolate AB031 assessed as fractional inhibitory concentration index incubated for 18 hrs in presence of Rifampicin by two fold broth microdilution checkerboard assay; assay type: functional
[25] = tested on: Escherichia coli; assay: Antibiotic adjuvant activity against multi-drug resistant Escherichia coli clinical isolate 94393 assessed as fractional inhibitory concentration index incubated for 18 hrs in presence of Rifampicin by two fold broth microdilution checkerboard assay; assay type: functional
[26] = tested on: Pseudomonas aeruginosa; assay: Antibiotic adjuvant activity against multi-drug resistant Pseudomonas aeruginosa clinical isolate PA259 assessed as fold potentiation incubated for 18 hrs in presence of Rifampicin by two fold broth microdilution checkerboard assay; assay type: functional
[27] = tested on: Acinetobacter baumannii; assay: Antibiotic adjuvant activity against multi-drug resistant Acinetobacter baumannii clinical isolate 92247 assessed as rifampicin MIC incubated for 18 hrs in presence of Rifampicin by two fold broth microdilution checkerboard assay; assay type: functional
[28] = tested on: Pseudomonas aeruginosa; assay: Antibiotic adjuvant activity against multi-drug resistant Pseudomonas aeruginosa clinical isolate PA259 assessed as fractional inhibitory concentration index incubated for 18 hrs in presence of Rifampicin by two fold broth microdilution checkerboard assay; assay type: functional
[29] = tested on: Escherichia coli; assay: Antibiotic adjuvant activity against multi-drug resistant Escherichia coli clinical isolate EC94474 assessed as fractional inhibitory concentration index incubated for 18 hrs in presence of doxycycline by two fold broth microdilution checkerboard assay; assay type: functional
[30] = tested on: Acinetobacter baumannii; assay: Antibiotic adjuvant activity against multi-drug resistant Acinetobacter baumannii clinical isolate AB027 assessed as inhibition of bacterial growth incubated for 18 hrs in presence of Rifampicin by two fold broth microdilution checkerboard assay; assay type: functional
[31] = tested on: Escherichia coli; assay: Antibiotic adjuvant activity against multi-drug resistant Escherichia coli clinical isolate EC107115 assessed as fractional inhibitory concentration index incubated for 18 hrs in presence of minocycline by two fold broth microdilution checkerboard assay; assay type: functional
[32] = tested on: Pseudomonas aeruginosa; assay: Antibiotic adjuvant activity against multi-drug resistant Pseudomonas aeruginosa clinical isolate PA259 assessed as minocycline MIC incubated for 18 hrs in presence of minocycline by two fold broth microdilution checkerboard assay; assay type: functional
[33] = tested on: Pseudomonas aeruginosa; assay: Antibiotic adjuvant activity against multi-drug resistant Pseudomonas aeruginosa clinical isolate 101243 assessed as inhibition of bacterial growth incubated for 18 hrs in presence of Rifampicin by two fold broth microdilution checkerboard assay; assay type: functional
[34] = tested on: Pseudomonas aeruginosa; assay: Antibiotic adjuvant activity against multi-drug resistant Pseudomonas aeruginosa clinical isolate PA259 assessed as fold potentiation incubated for 18 hrs in presence of minocycline by two fold broth microdilution checkerboard assay; assay type: functional
[35] = tested on: Escherichia coli; assay: Antibiotic adjuvant activity against Escherichia coli ATCC 25922 assessed as doxycycline MIC incubated for 18 hrs in presence of doxycycline by two fold broth microdilution checkerboard assay; assay type: functional

`Cl.NC[C@H]1O[C@H](O[C@H]2[C@H](OCc3ccccc3)[C@@H](O[C@H]3O[C@H](COCc4ccccc4)[C@@H](OCc4ccccc4)[C@H](N)[C@H]3OCc3ccccc3)[C@H](N)C[C@@H]2N)[C@H](N)C[C@@H]1OCc1ccccc1` was tested, and the MIC [1] was 8 µg/mL, the MIC [2] was 64 µg/mL and the “fold change (FC)” value [3] was 64. For the same compound, the MIC [4] was 32 µg/mL, the MIC [5] was greater than 128 µg/mL and the “fractional inhibitory concentration index (FICI)” value [6] was 1.063. The MIC [7] was 4 µg/mL, the Activity [8] was “inactive” and the “fractional inhibitory concentration index (FICI)” value [9] was 0.125. For the same compound, the “fold change (FC)” value [10] was 8, the “fold change (FC)” value [11] was 8 and the MIC [12] was 1 µg/mL. For the same compound, the “fold change (FC)” value [13] was 1, the MIC [14] was 8 µg/mL and the MIC [15] was 256 µg/mL. For the same compound, the “fractional inhibitory concentration index (FICI)” value [16] was 1.063, the MIC [17] was 8 µg/mL and the “fractional inhibitory concentration index (FICI)” value [18] was 0.126. The “fractional inhibitory concentration index (FICI)” value [19] was 1.063, the MIC [20] was 32 µg/mL and the Activity [21] was “inactive”. For the same compound, the MIC [22] was 2 µg/mL, the MIC [23] was 256 µg/mL and the “fractional inhibitory concentration index (FICI)” value [24] was 0.251. For the same compound, the “fractional inhibitory concentration index (FICI)” value [25] was 1.25, the “fold change (FC)” value [26] was 1 and the MIC [27] was 0.008 µg/mL. The “fractional inhibitory concentration index (FICI)” value [28] was 1.063, the “fractional inhibitory concentration index (FICI)” value [29] was 0.188 and the MIC [30] was 8 µg/mL. For the same compound, the “fractional inhibitory concentration index (FICI)” value [31] was 0.078, the MIC [32] was 128 µg/mL and the MIC [33] was 8 µg/mL. The “fold change (FC)” value [34] was 1 and the MIC [35] was 0.125 µg/mL.

— ChEMBL document CHEMBL5335843, “Application of tobramycin benzyl ether as an antibiotic adjuvant capable of sensitizing multidrug-resistant Gram-negative bacteria to rifampicin” (2024)
